ChEMBL document CHEMBL5543108, “Structure-based design and synthesis of BML284 derivatives: A novel class of colchicine-site noncovalent tubulin degradation agents” (Eur J Med Chem, 2024)

Tests used:
A2780/Taxol [1] = experiment: Induction of cell cycle arrest in human A2780T cells assessed as accumulation of cells at S phase at 3 nM measured after 24 hrs by propidium iodide staining based analysis (reference value: 29.73%); type: functional
A2780/Taxol [2] = experiment: Antitumor activity against human A2780T cells xenografted in mouse model assessed as tumor growth inhibition at 40 mg/kg, iv administered every two days for 18 days relative to control; type: functional; settings: 432 h, time 18 day, read-out: TGI
[3] = Tmax in male Sprague-Dawley rat at 10 mg/kg, po; type: ADME, organism-based; settings: in vivo
[4] = Cmax in male Sprague-Dawley rat at 10 mg/kg, po; type: ADME, organism-based; settings: in vivo
[5] = biological target: Tubulin beta (Homo sapiens) (UniProt P68371+Q9H4B7+Q13509+P04350+Q3ZCM7+P07437+Q13885+Q9BVA1+Q9BUF5+A6NNZ2); experiment: Binding affinity to beta-tubulin colchicine binding site in human HeLa cells assessed as inhibition of EBI-beta-tubulin adduct band formation by EBI competition based Western blot analysis; type: cell-based; settings: dose 0.2-25 µM

COc1cccc(-c2cc(NCc3ccc4[nH]ccc4c3)nc(N)n2)c1
Activity (A2780/Taxol [1]): 29.77%
inhibition in vivo at 40 mg/kg (A2780/Taxol [2]): 82%
Tmax [3]: 3.67 h
Cmax [4]: 77.9 ng/mL
Activity [5]: Dose-Dependent Effect
